Laboratory results taken from patent publication US8741965B2, “Method of administering a pheromone composition to an animal to modify the animals behavior over an extended period of time” (Sergeant's Pet Care Products, Inc., priority 2011, dated 2014).
“Also recorded” adds a separate entry of the source.

Columns and labels:
[1] = tested on: rabbit pups; settings: presented on its own to rabbit pups; Schaal et al. 2003; cited from earlier work
[2] = tested on: dogs diagnosed as nervous; experiment: Collars and heart rate of nervous dogs, 24 h basal and fog horn startle (Example 5); format: in vivo, dog; settings: collar
Method: Dogs diagnosed as being “nervous” were treated with four different treatments on different days: Placebo collar, Pheromone only collar (Serg), Rabbit INTEROMONE® collar (RP) (prepared in accordance with Example 1), and INTEROMONE® Plus Pheromone collar (Serg+RP) (prepared according to formulation provided in Example 3). Each dog experienced a given collar for 24 hours. Heart rate of the dogs was measured by remote telemetry. FIG. 22 illustrates the effects of the collars on heart rate collected over a period of 24 hours.
Each dog experienced a loud noise (fog horn) during a 2 second blast. The noise startled the dogs. Each dog had the collar on before, during and after the startle experience. […] The data illustrates that Serg alone had no effect on the startled dog heart rate. […] The data further indicate that only the RP is effective in reducing the heart rate of startled dogs.

[3] = tested on: nervous dogs (dogs 5-8); experiment: Example 11 Study 4: room diffusers over 24 hours; format: in vivo, dog; settings: for heart rate and surface temperature of individual dogs: compared with Placebo, FIGS. 17A and 17B
Excerpt: (§1) Eight dogs were obtained from a local contract research facility and assessment was made as to general dog health, behavior and heart rate. The dogs were estimated to be 2 to 7 years of age, mixed breed, and weighed averagely 8.1±0.18 kg at the start of the studies. […] Upon arrival each dog was bathed using shampoo containing flea and tick medicine (Hartz Mountain Corp. Secaucus, N.J. USA), and their body hair was shaved. Each dog was kept in a single room, which had 100% fresh air intake and exhaust. The dogs were fed twice (am and pm) per day ad libitum. At that time, the room was cleaned and the dogs obtained extra exercise. Water was available ad libitum.
(§2) Dog behavior was captured on video media at a sampling rate of 30 frames per second. Video records were reviewed in real time (with tape playing 30 frames per second). A scan sampling method was used to record dog behaviors each minute or each 5 minutes depending on the particular study. If the sample period was 120 minutes with four periods (0-30=0, 30-60=30, 60-90=60, and 90-120-90 min), then a scan sample was recorded each 1 minute. If the sample period was 24 hours, then the scan sample was collected each 5 minutes and summarized each hour. For example, pacing is when a dog walks in a stereotyped manner for minutes to hours. Because it was not easy to distinguish walking from pacing, the behaviors were merged. In addition, the video records could not clearly distinguish lying down and awake versus lying down and sleeping, therefore there was no separate description for these two behaviors.
(§3) Heart rate during the studies was measured by the use of a non-invasive telemetry system (Data Science International, St. Paul, Minn., USA). Leads were placed in contact with the dogs' shaved skin. Sensors measured heart rate, surface temperature and general activity. Data were transmitted to a receiving computer in another room. The sampling rate varied with the study, but was 5 seconds for the first two hours after treatments and then each 1 minute for 24 hours (depending on the particular study). For surface temperature measurements of the dog subjects, a thermistor was located against the skin of each dog. It recorded the surface temperature to the neared 0.1° C. on the same interval as the heart rate data.
(§4) Behavior and physiological data (heart rate and surface temperature) were analyzed by least squares analysis of variance using SAS (2011) software and the general linear models procedures. The experimental design of each study was a specialized randomized complete block in a Latin square design with data collected as a split plot over time. Dogs represented the blocks. Each dog received each treatment randomly in successive days or weeks. The statistical model included effects of treatment (TRT), dog, dog by treatment (TRT*DOG; error term used to assess treatment and dog effects), time (HR), treatment by time (TRT*HR), and residual error (SE; used to test remaining effects). Behavior data were collected and analyzed as counts per time period, but for clarity of presentation, the data are reported as percentage of time dogs engaged in each behavior.
In Study 4, putative pheromones were examined as room diffusers. Room diffusers were obtained and different liquid odors were applied over a 24 hour period. In contrast to Studies 1, 2, and 3, heart rates and behavior data were obtained over 24 hours (rather than just 2 hours after treatment application as in the other studies) and a baseline day was included in the dataset. Similar to Studies 1, 2, and 3, each dog experienced each treatment on different days in random order. The following treatment groups were evaluated: Baseline, Placebo Formula H Pheromone (SERG), DAP room diffuser (DAPRD; as available commercially) and the Rabbit Pheromone in diffuser form prepared in accordance with Example 4 (RPRD, 1 μg/mL). […]

[4] = tested on: nervous dogs; experiment: Example 11 Study 3: DAP spray versus RP spray with startle; format: in vivo, dog
Excerpt: as §1, §2, §3, §4
In Study 1 and 2, the DAP was applied as a collar and the rabbit pheromone as a spray. To test if the physical form of the pheromone/INTEROMONE® impacted its efficacy, Study 3 examined the behavior and heart rate effects of Dog Appeasing Pheromone (DAP) and rabbit pheromone (RP) both applied as a spray after startle in order to obtain a direct comparison between sprays. Accordingly, Study 3 examined the relative effect of DAP spray (DAPS) and RP spray on the behavior and heart rate of the dog subjects. Both treatments were given to each dog in a random order. In this study, the Behavior data were collected from dogs 1-8 while heart rate data were collected from dogs 1-4.

## C/C=C(\C)C=O [RP, 2-methylbut-2-enal]
[1]
  concentration sufficient to elicit full nipple search and grasping behavior (as low as): 10 ng/mL
[2]; basal testing, versus placebo, FIG. 22
  heart rate collected over 24 hours: increased heart rate
[2]; fog horn 2 second blast, versus control, FIG. 24
  heart rate during startle: lower heart rate during startle compared to control dogs
[3]; after room diffuser treatment, dogs 5-8, Placebo 30.9
  TEMP (surface temperature): 33.8
[3]; after room diffuser treatment, dogs 5-8, Placebo 79.6
  HR (overall heart rate): 108.4
[3]; room diffuser, 24 hours
  Defecate: 0.18% of time
  Drink: 0.18% of time
  Eat: 0.26% of time
  Lick self: 0.09% of time
  Lying down: 87.0% of time
  Pace-: 5.67% of time
  Sitting: 5.00% of time
  Standing: 1.42% of time
  Urinate: 0.26% of time
[3]; room diffuser, FIG. 16
  drinking behavior of individual dogs: dog 7 showed increased drinking
[3]; room diffuser
  heart rate and surface temperature of individual dogs: increased the surface temperature of dog 7 compared to placebo
[3]; room diffuser, listed as rabbit pheromone
  heart rate and surface temperature of individual dogs: Dog 5 had elevated HR and surface temperature; also recorded: Dog 6 had increased heart rate and decreased surface temperature
[3]; room diffuser, increased to
  heart rate of dog 5: about 200 bpm
[4]; DAPS or RP spray with startle
  Defecate: 0.93 % of time
  Drink: 0 % of time
  Eat: 0 % of time
  Lick self: 0 % of time
  Lying down: 43.8 % of time
  Pace-walk: 9.8 % of time
  Sitting: 35.4 % of time
  Standing: 3.7 % of time
  Urinate: 0 % of time
[4]; RP spray versus DAP spray, startle
  sitting, main effect of treatment: tended to sit more (P=0.068) than DAP sprayed dogs
[4]; spray and startle, dogs 1-4, FIG. 14B
  heart rate change relative to time zero: generally unchanged over time, although were lower than baseline rate
[4]; sprays, during startle, FIG. 13
  lying down of individual dogs: Dog 3 showed increased lying down
[4]; sprays, startle, FIGS. 11 and 12
  pacing-walking and standing of individual dogs: dogs 1 and 4 had increased pacing-walking
